Data reported in patent publication US7892764B2, “System for seizure suppression” (priority 2006, dated 2011).

Test system: mouse hippocampal slices
Assay: Stimulus train-induced after-discharges in hippocampal slices
Format: cell-based
Procedure: ASIC blockade on seizure-like bursting activity induced by high frequency stimulus trains, e.g., after-discharges (Stasheff et al., 1985), was determined as high frequency electric stimulation generates epileptic bursting without disrupting the balance of excitation versus inhibition thus more closely mimicking epileptogenesis in vivo (Stasheff et al., 1985). Following approximately five trains of stimulation, relatively stable after-discharges were recorded (FIGS. 7A-7E). Amiloride bath perfusion reduced after-discharge duration by about 80% (from 21.0±3.5 sec to 4.7±2.4 sec, n=3; p<0.05) and burst firing frequency by about 90% (from 2.8±0.4 Hz to 0.3±0.1 Hz, n=3, p<0.05, FIG. 7A). Similarly, PcTX1 reduced after-discharge duration from 29.3±8.5 to 11.5±4.1 sec (reduced to 0.44±0.10 of control, n=4, p<0.05) and burst firing frequency from 0.9±0.1 to 0.5±0.2 Hz (reduced to 0.5±0.1 of control, n=4, p<0.05, FIG. 7B). Similar to ASIC1a blockade, seizure activity was attenuated in hippocampal slices from ASIC1^−/− mice (Xiong et al., 2004) (FIGS. 7C-7E). In wild-type (WT) mice, five sets of stimulus trains generated bursting activity with a duration of 13.9±2.0 sec and a firing frequency of 1.6±0.2 Hz, whereas in slices from ASIC1^−/− mice, identical stimulations generated after-discharges of only 5.8±3.3 sec duration and 0.4±0.2 Hz frequency (n=9 for both groups, p<0.05 for difference in duration and p<0.01 for frequency, FIG. 7E).
Preparation of hippocampal slices and brain slice recording. Hippocampal slices were obtained from 8- to 10-week-old mice. The protocol for brain-slice recording was approved by the Institutional Animal Care and Use Committee of Legacy Research. Animals were deeply anesthetized with isoflurane and decapitated. Brains were quickly removed and placed in ice-cold solution that contained: 125 mM sucrose, 2.5 mM KCl, 26 mM NaHCO3, 1.25 mM NaHPO4, 6.0 mM […], 0.5 mM CaCl2, and 10 mM glucose, and was saturated with 95% O2 and 5% CO2 (pH 7.4). Hippocamnpal slices were cut in 400 μm thickness in transverse plane with a vibratome (Leica VT 1000S) and placed in a slice holding chamber (BSC-PC Prechamber, Warner Instrument) and incubated in normal artificial cerebral spinal fluid (aCSF) that contained: 125 mM NaCl, 2.5 mM KCl, 26 mM NaHCO3, 1.25 mM […], 1.0 mM MgSO4, 2.0 mM CaCl2, and 10 mM glucose, and was saturated with 95% O2 and 5% CO2 (pH 7.4).
Following ˜60 min of incubation at room temperature, individual slices were transferred to a submerged slice chamber with a volume of 0.5 mL (Warner Instruments, Hamden, Conn.) and perfused with oxygenated aCSF (35° C.) at a rate of 3-4 mL/min. Recording electrodes were pulled from borosilicate glass and filled with aCSF. The population spike and the field excitatory postsynaptic potentials (fEPSP) were recorded in stratum pyramidale and striatum radiatum of hippocampal CA1 region, by stimulating Schaffer Collaterals.
For low Mg^2+ induced epileptic burst activity, Mg^2+-free aCSF was perfused to the slices for ˜30 min. For stimulus-train induced bursting discharges (STIB), each stimulation train consisted of 120 pulses at 60 Hz and each pulse was 100 μsec in duration (Stasheff et al., 1985). A 10-minute interval of non-stimulation was provided between successive trains of high frequency stimulation. Stimulation electrodes were located in striatum radiatum between CA1 and CA3 region. The population spikes were recorded from striatum pyramidale of the CA3 region.

[1] = 100 μM amiloride bath perfusion

Compound	after-discharge duration [1] [s]	burst firing frequency [1] [Hz]	reduction of after-discharge duration [1]	reduction of burst firing frequency [1]	after-discharge duration (200 ng/mL PcTX1) [s]	after-discharge duration relative to control (200 ng/mL PcTX1)	burst firing frequency (200 ng/mL PcTX1) [Hz]	burst firing frequency relative to control (200 ng/mL PcTX1)
NC(N)=NC(=O)c1nc(Cl)c(N)nc1N [amiloride, 3,5-diamino-6-chloro-N(diaminomethylidene)pyrazine-2-carboxamide]	4.7 ± 2.4	0.3±0.1	about 80%	about 90%				
Psalmotoxin 1 [PcTX1]					11.5 ± 4.1	0.44±0.10 of control	0.5±0.2	0.5±0.1 of control
